According to patent US7747390B2, “Digital cell” (National Institute of Advanced Industrial Science and …, priority 2003, dated 2010):

What was measured:
[1] = tested on: cells resistant or sensitive to the anticancer agent; assay: Time-lapse profiles of cells exposed to anticancer agent; assay type: cell-based; details: cisplatin 1 μM, 5 μM, 10 μM in medium
Protocol: In this example, cisplatin was used as an exemplary anticancer agent and was mixed into the medium of exposed cells. The concentration of the anticancer agent was selected as appropriate, such as 1 μM, 5 μM, 10 μM, and the like, to observe the reaction of the cells. Cisplatin was applied to cells resistant or sensitive to the anticancer agent. Time-lapse observation was conducted to produce profiles as in the above-described examples.

HEK293 cells = assay: Solid phase transfection with actin-like acting substances (FIG. 1); assay type: cell-based, human; details: pEGFP-N1, Effectene reagent, gelatin as control
Protocol: (§1) The final concentration of DNA was adjusted to 1 μg/μL. An actin-like acting substance was preserved as a stock having a concentration of 10 μg/μL in ddH2O. All dilutions were made using PBS, ddH2O, or Dulbecco's MEM. A series of dilutions, for example, 0.2 μg/μL, 0.27 μg/μL, 0.4 μg/μL, 0.53 μg/μL, 0.6 μg/μL, 0.8 μg/μL, 1.0 μg/μL, 1.07 μg/μL, 1.33 μg/μL, and the like, were formulated.
(§2) Transfection reagents and DNA were mixed to form a DNA-transfection reagent complex. Formation of the complex requires a certain period of time. Therefore, the mixture was spotted onto a solid phase support (e.g., a poly-L-lysine slide) using an arrayer. In Example 2, as a solid phase support, an APS slide, a MAS slide, and an uncoated slide were used as well as a poly-L-lysine slide. These slides are available from Matsunami Glass (Kishiwada, Japan) or the like.
(§3) 300 μL of DNA concentrated buffer (EC buffer)+16 μL of an enhancer were mixed in an Eppendorf tube. The mixture was mixed with a Vortex, followed by incubation for 5 minutes. 50 μL of a transfection reagent (Effectene, etc.) was added to the mixture, followed by mixing by pipetting. To apply a transfection reagent, an annular wax barrier was formed around the spots on the slide. 366 μL of the mixture was added to the spot region surrounded by the wax, followed by incubation at room temperature for 10 to 20 minutes. Thereby, the fixation to the support was manually achieved.
(§4) The growing cells were distributed to a concentration of 10^7 cells/25 mL. The cells were plated on the slide in a 100×100×15 mm squared Petri dish or a 100 mm (radius)×15 mm circular dish. Transfection was conducted for about 40 hours. This period of time corresponded to about 2 cell cycles. The slide was treated for immunofluorescence.
(§5) To quantify transfection efficiency, the present inventors use a DNA microarray scanner (GeneTAC UC4×4, Genomic Solutions Inc., MI). Total fluorescence intensity (arbitrary unit) was measured, and thereafter, fluorescence intensity per unit surface area was calculated.

[2] = tested on: cells on transfection array; assay: Transfection efficiency when fibronectin fragments were used (FIGS. 2-4); assay type: cell-based; details: fibronectin fragments or RGD peptide as actin-like acting substance
Protocol: as §1, §2
300 μL of DNA concentrated buffer (EC buffer)+16 μL of an enhancer were mixed in an Eppendorf tube. The mixture was mixed with a Vortex, followed by incubation for 5 minutes. 50 μL of a transfection reagent (Effectene, etc.) was added to the mixture, followed by mixing by pipetting. […]
as §5

[3] = tested on: human mesenchymal stem cells (hMSC); assay: Cell adhesion profile and cross-sectional confocal observation in presence or absence of fibronectin (FIGS. 8-10); assay type: cell-based
[4] = tested on: cells on transfection array; assay: Transfection at various fibronectin concentrations on coated and uncoated slides (FIG. 7); assay type: cell-based
Protocol: as §1, §2, §3, §4, §5

## N.N.[Cl][Pt][Cl] [cisplatin]
[1]
  time-lapse profiles: varied depending on the difference in cisplatin concentration and resistance/sensitivity

## gelatin [reference compound]
HEK293 cells
  transfection (transfection efficiency): not very successful

## laminin
HEK293 cells
  transfection (transfection efficiency): transfection took place to a significant level

## RGD peptide (tripeptide) [reference compound]
[2]
  transfection activity: increased transfection efficiency was not exhibited
HEK293 cells
  transfection (transfection efficiency): substantially no effect

## fibronectin
HEK293 cells
  transfection (transfection efficiency): transfection took place to a significant level
[3]; in the presence of fibronectin, FIG. 10
  surface area of the nucleus: significantly increased
[3]; initial 3 hours of culture in the presence of fibronectin, FIG. 9
  extension of adherent cells: full extension of cells
[4]; APS coating
  fibronectin concentration at which the effect was further increased: > 1.07 µg/µL
[4]; PLL coating
  fibronectin concentration at which transfection efficiency reached a plateau: more than 0.53 μg/μL
[4]; absence of coating
  fibronectin concentration at which transfection efficiency reached a plateau: more than 0.53 μg/μL
[4]; fibronectin 0, 0.27, 0.53, 0.8, 1.07, 1.33 μg/μL, FIG. 7
  transfection efficiency versus fibronectin concentration: increased with an increase in fibronectin concentration
